Measurements as given in US20060178394A1, “Pharmaceutical compositions comprising apomorphine for pulmonary inhalation” (priority 2003, published 2006).
Entries after “also recorded” stand apart in the source; their conditions may differ. Counter-ions that a name gives are not always drawn. Like-named read-outs stand apart in the source and are kept apart here.

Columns and labels:
[1] = Drug retention and degradation in PE and PVC blisters
[2] = Adverse event monitoring in the clinical study of Example 14; format: in vivo, human; conditions: for All adverse events: subjects with AE, %: safety population
Excerpt: Adverse events were monitored during each dosing period. The proportion of patients experiencing one or more adverse events was similar in all four treatment groups. No serious adverse events were observed and no adverse event led to the premature discontinuation of any subject. All adverse events were mild or moderate in severity and occurred in a small percentage of the groups treated. Table 9 is a summary of all treatment related adverse events, and Table 10 breaks treatment-related adverse events down by body system.

[3] = system: patients (quality of erection in response to VSS); test: Clinical study (Example 14): erection response to visual sexual stimulation after DPI inhalation; format: in vivo, human; conditions: for Number of patients with quality grade 0, No effect / Number of patients with quality grade 1, Some tumescence, no rigidity / Number of patients with quality grade 2, Some tumescence and rigidity / Number of patients with quality grade 3, Partial erection / Number of patients with quality grade 4, Full erection: ITT; for Effective? / Responding (subjects with grade 3 or 4 erection) / Response rate: ITT population; for Duration, Mean: 60 min test period
Method: During each treatment, a patient was administered the given dose and was left alone to watch an hour of visual sexual stimulation (VSS). […] After 60 minutes, the patient's were asked to rate the quality and duration of their response to VSS. In this regard, the quality of response is defined as one of […]: 0: no effect; 1: some tumescence, no rigidity; 2: some tumescence, some rigidity, but not suitable for penetration; 3: rigidity and tumescence that would enable penetration but is not complete erection; 4: complete erection.
This study was conducted in a double blind fashion, where both the healthcare professional administering the treatment and the patient were not informed as to the actual dose being administered. The patients who participated in this study were randomised.
The primary measure of efficacy, as defined in the protocol, was the proportion of subjects reporting a grade 3 or 4 erection, using general criteria defined in the International Index of Erectile Function (IIEF). Grade 3 and 4 erections are regarded as “sufficient for successful intercourse”.

[4] = Phase I study: plasma pharmacokinetics of single inhaled doses (Example 15); format: in vivo, human; conditions: for Tmax: median values; for Cmax: healthy male volunteers
Method: A phase I, double blind, randomised, placebo controlled study was conducted examining the safety, tolerability and pharmacokinetics of single 600 μg, 900 μg and 1200 μg doses in 16 healthy male volunteers. No evaluation for efficacy was conducted during the clinical study.
Pharmacokinetic plasma sampling was conducted pre-dose and at the following intervals post dose administration: 1 minute, 3 minutes, 5 minutes, 10 minutes, 15 minutes, 30 minutes, 45 minutes, 1 hour, 1.5 hours, 2 hours, 4 hours, 8 hours, 12 hours and 24 hours.
The following pharmacokinetic parameters were derived from the plasma apomorphine concentrations by non-compartmental analysis.
It should be noted that the tmax is represented as median values.

[5] = Blood analysis 70 minutes after inhalation (Example 14); format: in vivo; conditions: human, inhaled, 34 patients
Method: For each patient, blood samples were taken 70 minutes after inhalation. The blood samples were analysed, and the blood levels for 400 and 800 microgram doses of apomorphine for each of the 34 patients that completed the test are set forth in Table 11 in nanograms per millilitre. It should be appreciated from the data discussed in Example 15 below that these blood samples were actually taken long after the plasma concentration peak.

[6] = intranasal delivery, clinical setting; Nastech studies; cited from earlier work
[7] = Solubility of apomorphine HCl in HFA propellant systems (solution pMDI); format: physicochemical
Method: However, conventional solution pMDI techniques are not believed to be appropriate for the delivery of apomorphine or its pharmaceutically acceptable salts with HFA propellants. Specifically, apomorphine base is too unstable to be formulated using current approaches and apomorphine salts are too polar to be formulated as solutions in HFA propellants. […] Even with such a system, a solution concentration of <25 μg/dose is achieved, which is well below the effective doses described above in connection with Dry Powder Inhalers.

[8] = 200 μg inhaled, grade 3 and 4 responders
[9] = 400 μg inhaled, listed as apomorphine HCl, hydrochloride
[10] = 400 μg inhaled, grade 3 and 4 responders
[11] = 800 μg inhaled, listed as apomorphine HCl, hydrochloride
[12] = male, human, plasma, inhaled or intranasal, 600 ug, 600 μg single inhaled dose, mean ± standard error
[13] = male, human, plasma, inhaled or intranasal, 900 ug, 900 μg single inhaled dose, mean ± standard error
[14] = male, human, plasma, inhaled or intranasal, 1200 ug, 1200 μg single inhaled dose, mean ± standard error

## CN1CCc2cccc3c2[C@H]1Cc1ccc(O)c(O)c1-3 [Apomorphine HCl, apomorphine hydrochloride]
[1]; DUSA
  Mean drug retention, PE blisters: 43.6 µg
  Mean drug retention, PVC blisters: 12.9 µg
[1]; Initial stability
  Mean drug retention, PE blisters: 44.7 µg
  Mean drug retention, PVC blisters: 13.9 µg
[1]; initial stability data, related substance peaks after 1 month, hydrochloride
  Chemical stability in the presence of polyethylene (PE blisters): chemically degrades; also recorded: degradation of the formulated product takes place
[2]; 200 μg inhaled
  Treatment-related AE: Cough, %: 3%
  Treatment-related AE: Dizziness, %: 3%
  Treatment-related AE: Nasal congestion, %: 3%
  Treatment-related AE: Nervous system disorders, %: 3%
  Treatment-related AE: Respiratory, thoracic & mediastinal disorders, %: 3%
  Treatment-related AE: Sneezing, %: 3%
  Treatment-related adverse events: subjects with AE, %: 6%
  All adverse events: subjects with AE, %: 9%
[2]; 400 μg inhaled
  Treatment-related AE: Dry throat, %: 3%
  Treatment-related AE: Pharyngolaryngeal pain, %: 6%
  Treatment-related AE: Respiratory, thoracic & mediastinal disorders, %: 9%
  Treatment-related adverse events: subjects with AE, %: 9%
  All adverse events: subjects with AE, %: 9%
[2]; 800 μg inhaled
  Treatment-related AE: Dizziness, %: 6%
  Treatment-related AE: Gastrointestinal disorders, %: 3%
  Treatment-related AE: Nausea, %: 3%
  Treatment-related AE: Nervous system disorders, %: 6%
  Treatment-related adverse events: subjects with AE, %: 6%
[2]; 800 μg inhaled, hydrochloride
  All adverse events: subjects with AE, %: 6%
[3]; 200 μg inhaled
  Duration: 24 min
  Duration, Max: 47 min
  Duration, Median: 31.5 min
  Number of patients with quality grade 0, No effect: 11
  Number of patients with quality grade 1, Some tumescence, no rigidity: 10
  Number of patients with quality grade 2, Some tumescence and rigidity: 6
  Number of patients with quality grade 3, Partial erection: 6
  Number of patients with quality grade 4, Full erection: 2
  Effective?: No
[3]; 200 μg inhaled, FIG. 12
  Onset of an erection in one patient: about 40 minutes
[3]; 200 μg inhaled, 35 evaluated
  Responding (subjects with grade 3 or 4 erection): 8
[3]; 200 μg inhaled, hydrochloride
  Response rate: 22.9%
[3]; 200 μg inhaled, N 8
  Duration, Mean: 33.3 min
[3]; [8]
  Onset, Max: 20 min post dose
  Onset, Min: 8 min post dose
[3]; 200 μg inhaled, grade 3 and 4 responders, N 8
  Onset, Mean: 13 min post dose
[3]; 400 μg inhaled
  Duration: 4 min
  Duration, Max: 54 min
  Duration, Median: 38 min
  Number of patients with quality grade 0, No effect: 8
  Number of patients with quality grade 1, Some tumescence, no rigidity: 6
  Number of patients with quality grade 2, Some tumescence and rigidity: 3
  Number of patients with quality grade 3, Partial erection: 8
  Number of patients with quality grade 4, Full erection: 8
[3]; 400 μg inhaled, FIG. 13
  Onset of an erection in one patient: about 3 minutes
[3]; 400 μg inhaled, 33 evaluated
  Responding (subjects with grade 3 or 4 erection): 16
[3]; 400 μg inhaled, listed as apomorphine HCL, hydrochloride
  Effective?: effective
[3]; [9]
  Effective?: effective and Yes
  Response rate: 48.5%
[3]; 400 μg inhaled, N 16
  Duration, Mean: 31.1 min
[3]; [10]
  Onset, Max: 28 min post dose
  Onset, Median: 8 min post dose
[3]; 400 μg inhaled, grade 3 and 4 responders, N 16
  Onset, Mean: 11 min post dose
[3]; 400 μg inhaled, grade 3 and 4 responders, hydrochloride
  Onset, Min: 3 min post dose
[3]; 800 μg inhaled
  Duration: 6 min
  Duration, Max: 54 min
  Duration, Median: 36 min
  Number of patients with quality grade 1, Some tumescence, no rigidity: 3
  Number of patients with quality grade 2, Some tumescence and rigidity: 7
  Number of patients with quality grade 3, Partial erection: 6
  Number of patients with quality grade 4, Full erection: 14
[3]; 800 μg inhaled, FIG. 14
  Onset of an erection in one patient: about 4 minutes
[3]; 800 μg inhaled, 34 evaluated
  Responding (subjects with grade 3 or 4 erection): 20
[3]; 800 μg inhaled, listed as apomorphine HCL, hydrochloride
  Effective?: effective
[3]; [11]
  Effective?: effective and Yes
  Response rate: 58.8%
[3]; 800 μg inhaled, N 19
  Duration, Mean: 31.2 min
[3]; 800 μg inhaled, grade 3 and 4 responders
  Onset, Max: 17 min post dose
[3]; 800 μg inhaled, grade 3 and 4 responders, N 19
  Onset, Mean: 10 min post dose
[3]; 800 μg inhaled, grade 3 and 4 responders, hydrochloride
  Onset, Min: 3 min post dose
[3]; pulmonary inhalation
  Lowest inhaled dose at which the clinical effect is observed: 400 µg
[4]; 600 μg single inhaled dose, mean ± standard error
  AUC0-∞: 176.4 ± 26.9 ng·min/mL
[4]; 900 μg single inhaled dose, hydrochloride
  Tmax: 1 min
[4]; 1200 μg single inhaled dose, hydrochloride
  Tmax: 1 min
[4]; 600, 900, 1200 μg inhaled
  Dose proportionality for Cmax, AUC0-∞ and AUC0-t: demonstrated
[4]; male, human, plasma, inhaled or intranasal, 600 ug, 600 μg inhaled, comparison table with Uprima
  AUC(0-inf): 2.2 ng·h/mL
[4]; [12]
  Cmax: 3.5 to 4.9 ng/mL
  AUC(0-t): 2.23 ng·h/mL
[4]; male, human, plasma, inhaled or intranasal, 600 ug, 600 μg single inhaled dose, read-out: tmax (converted)
  Tmax: 3 min
[4]; male, human, plasma, inhaled or intranasal, 900 ug, 900 μg inhaled, comparison table with Uprima
  AUC(0-inf): 3.4 ng·h/mL
[4]; [13]
  Cmax: 7.4 to 8.8 ng/mL
  AUC(0-inf): 3.84 ng·h/mL
  AUC(0-t): 3.42 ng·h/mL
[4]; male, human, plasma, inhaled or intranasal, 900 ug, 900 μg single inhaled dose, read-out: tmax (converted)
  Tmax: 1 min
[4]; male, human, plasma, inhaled or intranasal, 1200 ug, 1200 μg inhaled, comparison table with Uprima
  AUC(0-inf): 5.5 ng·h/mL
[4]; [14]
  Cmax: 9.2 to 16.2 ng/mL
  AUC(0-inf): 5.5 ng·h/mL
  AUC(0-t): 4.93 ng·h/mL
[4]; male, human, plasma, inhaled or intranasal, 1200 ug, 1200 μg single inhaled dose, read-out: tmax (converted)
  Tmax: 1 min
[5]; 400 μg, 400 μg inhaled, read-out: Blood level 70 minutes after dosing, Mean
  concentration at 70 min: 0.215 ng/mL
[5]; 400 μg, 400 μg inhaled, read-out: Blood level 70 minutes after dosing, Median
  concentration at 70 min: 0.217 ng/mL
[5]; 800 μg, 800 μg inhaled, read-out: Blood level 70 minutes after dosing, Mean
  concentration at 70 min: 0.608 ng/mL
[5]; 800 μg, 800 μg inhaled, read-out: Blood level 70 minutes after dosing, Median
  concentration at 70 min: 0.567 ng/mL
[6]
  Dose that can be administered without causing unacceptable side effects: more than 2 mg
[7]; HFA propellant solution pMDI systems
  Ethanol required for suitable or acceptable solubility: at least 50%
[7]; HFA propellant system with at least 50% ethanol
  Solution concentration achieved: < 25 μg/dose
